Key:
Type in all cases: binding
PCSK9 [1] = molecular target: T1, PCSK9 (Homo sapiens, UniProt Q8NBP7); assay: PCSK9 Alexa FRET Standard TR-FRET assay
T1 construct: biotin (biotinylated); purchased
Method in brief: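 Ki (nM) calculated from sigmoidal-fit IC50 and the KD of an AlexaFluor-labelled cyclic peptide (20 nM final) competing with compound for biotinylated PCSK9 (0.5 nM) bound to Eu-streptavidin (1.25 nM). Incubation at least 2 h, room temperature, HEPES pH 7.4 buffer with CaCl2; falling europium counts flag false positives.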

PCSK9 [2] = molecular target: T1, PCSK9; assay: PCSK9 Alexa FRET Plus TR-FRET assay
Method in brief: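 Compounds displace an AlexaFluor-labeled cyclic peptide (1920 nM solution, not final) from europium-tagged PCSK9; time-resolved FRET read after ≥2 h at room temperature. Ki derived from fitted IC50 and peptide KD, europium donor counts monitored to detect compound interference, results given in nanomolar.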

PCSK9 [3] = molecular target: T1, PCSK9; assay: PCSK9 Alexa FRET Ultra TR-FRET assay
Method in brief: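 TR-FRET read after ≥2 h at room temperature between europium-PCSK9 and an AlexaFluor cyclic peptide, stated as a 1920 nM solution. Sigmoidal nonlinear regression gives IC50, and Ki in nM follows from the peptide KD; europium counts are monitored for compound interference.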

[4] = Ki calculated from IC50 and KD of AF cyclic peptide Reagent A, 0.5 nM PCSK9, 20 nM AF cyclic peptide, read-out: Alexa FRET Stdt TR-FRET
[5] = Ki calculated from IC50 and KD of AF cyclic peptide Reagent B, 0.5 nM PCSK9, 960 nM AF cyclic peptide, read-out: Alexa FRET Plus TR-FRET
[6] = Ki Ultra, calculated from IC50 and KD of AF cyclic peptide, 0.5 nM PCSK9, 960 nM AF cyclic peptide, read-out: Alexa FRET Ultra TR-FRET

T1 sequence (Q8NBP7 153-692): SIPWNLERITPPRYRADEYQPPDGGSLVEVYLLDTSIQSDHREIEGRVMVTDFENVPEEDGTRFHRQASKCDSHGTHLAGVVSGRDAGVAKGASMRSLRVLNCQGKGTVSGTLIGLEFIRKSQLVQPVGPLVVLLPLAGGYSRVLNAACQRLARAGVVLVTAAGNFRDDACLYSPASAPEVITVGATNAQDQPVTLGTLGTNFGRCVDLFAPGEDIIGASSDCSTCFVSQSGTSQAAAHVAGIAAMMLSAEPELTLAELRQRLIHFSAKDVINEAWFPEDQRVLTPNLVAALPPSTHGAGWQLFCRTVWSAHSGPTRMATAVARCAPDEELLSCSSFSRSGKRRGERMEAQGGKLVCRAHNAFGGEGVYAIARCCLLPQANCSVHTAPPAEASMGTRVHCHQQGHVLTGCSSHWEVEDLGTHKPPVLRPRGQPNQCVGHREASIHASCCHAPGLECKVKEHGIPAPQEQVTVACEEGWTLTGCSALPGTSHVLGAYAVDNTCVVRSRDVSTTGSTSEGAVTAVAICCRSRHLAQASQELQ

Compound | Ki (PCSK9 [1]; [4]) [nM] | Ki (PCSK9 [2]; [5]) [nM] | Ki (PCSK9 [3]; [6]) [nM] | Ki (PCSK9 [1]) [nM] | Ki (PCSK9 [2]) [nM] | Ki (PCSK9 [3]) [nM]
COc1ccc(C[C@@H]2NC(=O)[C@H]([C@@H](C)O)NC(=O)[C@@H]3[C@@H]4CCN3C(=O)[C@@H]3Cc5cn(c6ccc(F)cc56)CCCCCCN(Cc5ccc(cc5)CCNC(=O)[C@]5(C)CCCN5C2=O)C(=O)CCC(=O)N[C@@H](C)C(=O)N[C@H](CNC(=O)COCCOCCNC(=O)COCCOCCNC(=O)CC[C@H](NC(=O)CC[C@H](NC(=O)CCCCCCCCCCCCCCC(=O)O)C(=O)O)C(=O)O)C(=O)N[C@@H](Cc2cccc(c2)CNC(=O)CO4)C(=O)N3)cc1 [Ex-42] | < 1.26 | < 0.006 | 0.01 | – | – | –
COc1ccc(C[C@@H]2NC(=O)[C@H]([C@@H](C)O)NC(=O)[C@@H]3[C@@H]4CCN3C(=O)[C@@H]3Cc5cn(c6ccc(F)cc56)C/C=C/CCCN(Cc5ccc(cc5)CCNC(=O)[C@]5(C)CCCN5C2=O)C(=O)CCC(=O)N[C@@H](C)C(=O)N[C@H](CNC(=O)CCOCCOCC[N+](C)(C)CCNC(=O)COCCOCCNC(=O)COCCOCCNC(=O)CC[C@H](NC(=O)CC[C@H](NC(=O)CCCCCCCCCCCCCCCCC(=O)O)C(=O)O)C(=O)O)C(=O)N[C@@H](Cc2cccc(c2)CNC(=O)CO4)C(=O)N3)cc1 [Ex-44] | < 1.26 | < 0.006 | 0.003 | – | – | –
COc1ccc(C[C@@H]2NC(=O)[C@H]([C@@H](C)O)NC(=O)[C@@H]3[C@@H]4CCN3C(=O)[C@@H]3Cc5cn(c6ccc(F)cc56)CCCCCCN(Cc5ccc(cc5)CCNC(=O)[C@]5(C)CCCN5C2=O)C(=O)CCC(=O)N[C@@H](C)C(=O)N[C@H](CNC(=O)COCCOCC[N+](C)(C)CCOCCNC(=O)COCCOCCNC(=O)COCCOCCNC(=O)CC[C@H](NC(=O)CC[C@H](NC(=O)CCCCCCCCCCCCCCC(=O)O)C(=O)O)C(=O)O)C(=O)N[C@@H](Cc2cccc(c2)CNC(=O)CO4)C(=O)N3)cc1 [Ex-47] | < 1.26 | < 0.006 | 0.003 | – | – | –
COc1ccc(C[C@@H]2NC(=O)[C@H]([C@@H](C)O)NC(=O)[C@@H]3[C@@H]4CCN3C(=O)[C@@H]3Cc5cn(c6ccc(F)cc56)CCCCCCN(Cc5ccc(cc5)CCNC(=O)[C@]5(C)CCCN5C2=O)C(=O)CCC(=O)N[C@@H](C)C(=O)N[C@H](CNC(=O)CCOCCOCC[N+](C)(C)CCNC(=O)COCCOCCNC(=O)CC[C@H](NC(=O)CC[C@H](NC(=O)CC[C@H](NC(=O)CCCCCCCCCCCCCCCCC(=O)O)C(=O)O)C(=O)O)C(=O)O)C(=O)N[C@@H](Cc2cccc(c2)CNC(=O)CO4)C(=O)N3)cc1 [Ex-48] | < 1.26 | < 0.006 | 0.009 | – | – | –
COc1ccc(C[C@@H]2NC(=O)[C@H]([C@@H](C)O)NC(=O)[C@@H]3[C@@H]4CCN3C(=O)[C@@H]3Cc5cn(c6ccc(F)cc56)CCCCCCN(Cc5ccc(cc5)CCNC(=O)[C@]5(C)CCCN5C2=O)C(=O)CCC(=O)N[C@@H](C)C(=O)N[C@H](CNC(=O)CCOCCOCC[N+](C)(C)CCNC(=O)COCCOCCNC(=O)COCCOCCNC(=O)CC[C@@H](NC(=O)CC[C@@H](NC(=O)CCCCCCCCCCCCCCCCC(=O)O)C(=O)O)C(=O)O)C(=O)N[C@@H](Cc2cccc(c2)CNC(=O)CO4)C(=O)N3)cc1 [Ex-49] | – | < 0.006 | 0.003 | < 1.26 | – | –
COc1ccc(C[C@@H]2NC(=O)[C@H]([C@@H](C)O)NC(=O)[C@@H]3[C@@H]4CCN3C(=O)[C@@H]3Cc5cn(c6ccc(F)cc56)CCCCCCN(Cc5ccc(cc5)CCNC(=O)[C@]5(C)CCCN5C2=O)C(=O)CCC(=O)N[C@@H](C)C(=O)N[C@H](CNC(=O)COCCOCC[N+](C)(C)CCNC(=O)COCCOCCNC(=O)COCCOCCNC(=O)CC[C@H](NC(=O)CCCCCCCCOCCCCCCCCC(=O)O)C(=O)O)C(=O)N[C@@H](Cc2cccc(c2)CNC(=O)CO4)C(=O)N3)cc1 [Ex-50] | < 1.26 | – | – | – | < 0.006 | 0.005
COc1ccc(C[C@@H]2NC(=O)[C@H]([C@@H](C)O)NC(=O)[C@@H]3[C@@H]4CCN3C(=O)[C@@H]3Cc5cn(c6ccc(F)cc56)CCCCCN(Cc5ccc(cc5)CCNC(=O)[C@]5(C)CCCN5C2=O)C(=O)CCC(=O)N[C@@H](C)C(=O)N[C@H](CNC(=O)CCOCCOCC[N+](C)(C)CCNC(=O)COCCOCCNC(=O)COCCOCCNC(=O)CC[C@H](NC(=O)CC[C@H](NC(=O)CCCCCCCCCCCCCCCCC(=O)O)C(=O)O)C(=O)O)C(=O)N[C@@H](Cc2cccc(c2)CNC(=O)CO4)C(=O)N3)cc1 [Ex-51] | < 1.26 | – | – | – | 0.007 | 0.005
COc1ccc(C[C@@H]2NC(=O)[C@H]([C@@H](C)O)NC(=O)[C@@H]3[C@@H]4CCN3C(=O)[C@@H]3Cc5cn(c6ccc(F)cc56)CCCCCCN(Cc5ccc(cc5)CCNC(=O)[C@]5(C)CCCN5C2=O)C(=O)CCC(=O)N[C@@H](C)C(=O)N[C@H](CNC(=O)CCOCCOCC[N+](C)(C)CCNC(=O)Cc2c(C)n(C(=O)c5ccc(Cl)cc5)c5ccc(OC)cc25)C(=O)N[C@@H](Cc2cccc(c2)CNC(=O)CO4)C(=O)N3)cc1 [Ex-52] | < 1.26 | < 0.006 | 0.001 | – | – | –
COc1ccc(C[C@@H]2NC(=O)[C@H]([C@@H](C)O)NC(=O)[C@@H]3[C@@H]4CCN3C(=O)[C@@H]3Cc5cn(c6ccc(F)cc56)CCCCCCN(Cc5ccc(cc5)CCNC(=O)[C@]5(C)CCCN5C2=O)C(=O)CCC(=O)N[C@@H](C)C(=O)N[C@H](CNC(=O)COCCOCCNC(=O)CC[C@H](NC(=O)CCOCCOCC[N+](C)(C)CCNC(=O)COCCOCCNC(=O)COCCOCCNC(=O)CC[C@H](NC(=O)CCCCCCCCCCCCCCCCC(=O)O)C(=O)O)C(=O)O)C(=O)N[C@@H](Cc2cccc(c2)CNC(=O)CO4)C(=O)N3)cc1 [Ex-53] | < 1.26 | – | – | – | 0.01 | 0.014
COc1ccc(C[C@@H]2NC(=O)[C@H]([C@@H](C)O)NC(=O)[C@@H]3[C@@H]4CCN3C(=O)[C@@H]3Cc5cn(c6ccc(F)cc56)CCCCCCN(Cc5ccc(cc5)CCNC(=O)[C@]5(C)CCCN5C2=O)C(=O)CCC(=O)N[C@@H](C)C(=O)N[C@H](CNC(=O)CCOCCOCC[N+](C)(C)CCNC(=O)CC[C@H](NC(=O)COCCOCCNC(=O)CC[C@H](NC(=O)CCCCCCCCCCCCCCCCC(=O)O)C(=O)O)C(=O)O)C(=O)N[C@@H](Cc2cccc(c2)CNC(=O)CO4)C(=O)N3)cc1 [Ex-54] | < 1.26 | 0.021 | 0.014 | – | – | –
COc1ccc(C[C@@H]2NC(=O)[C@H]([C@@H](C)O)NC(=O)[C@@H]3[C@@H]4CCN3C(=O)[C@@H]3Cc5cn(c6ccc(F)cc56)CCCCCCN(Cc5ccc(cc5)CCNC(=O)[C@]5(C)CCCN5C2=O)C(=O)CCC(=O)N[C@@H](C)C(=O)N[C@H](CNC(=O)[C@@H](CCCC[N+](C)(C)C)NC(=O)COCCOCCNC(=O)COCCOCCNC(=O)CC[C@H](NC(=O)CC[C@H](NC(=O)CCCCCCCCCCCCCCCCC(=O)O)C(=O)O)C(=O)O)C(=O)N[C@@H](Cc2cccc(c2)CNC(=O)CO4)C(=O)N3)cc1 [Ex-55] | < 1.26 | 0.012 | 0.01 | – | – | –
COc1ccc(C[C@@H]2NC(=O)[C@H]([C@@H](C)O)NC(=O)[C@@H]3[C@@H]4CCN3C(=O)[C@@H]3Cc5cn(c6ccc(F)cc56)CCCCCCN(Cc5ccc(cc5)CCNC(=O)[C@]5(C)CCCN5C2=O)C(=O)CCC(=O)N[C@@H](C)C(=O)N[C@H](CNC(=O)CCOCCOCC[N+](C)(C)CCNC(=O)COCCOCCNC(=O)COCCOCCNC(=O)CC[C@H](NC(=O)CCCCCCCCCCCCCCC(=O)N[C@@H](CC(=O)O)C(=O)O)C(=O)O)C(=O)N[C@@H](Cc2cccc(c2)CNC(=O)CO4)C(=O)N3)cc1 [Ex-56] | < 1.26 | < 0.006 | 0.004 | – | – | –
COc1ccc(C[C@@H]2NC(=O)[C@H]([C@@H](C)O)NC(=O)[C@@H]3[C@@H]4CCN3C(=O)[C@@H]3Cc5cn(c6ccc(F)cc56)CCCCCCN(Cc5ccc(cc5)CCNC(=O)[C@]5(C)CCCN5C2=O)C(=O)CCC(=O)N[C@@H](CNC(=O)CCOCCOCC[N+](C)(C)CCNC(=O)COCCOCCNC(=O)COCCOCCNC(=O)CC[C@H](NC(=O)CCCCCCCCCCCCCCC(=O)O)C(=O)O)C(=O)N[C@H](C)C(=O)N[C@@H](Cc2cccc(c2)CNC(=O)CO4)C(=O)N3)cc1 [Ex-57] | < 1.26 | 0.009 | 0.034 | – | – | –
COc1ccc(C[C@@H]2NC(=O)[C@H]([C@@H](C)O)NC(=O)[C@@H]3[C@@H]4CCN3C(=O)[C@@H]3Cc5cn(c6ccc(F)cc56)CCCCCCN(Cc5ccc(cc5)CCNC(=O)[C@]5(C)CCCN5C2=O)C(=O)CCC(=O)N[C@@H](CNC(=O)CCOCCOCC[N+](C)(C)CCNC(=O)COCCOCCNC(=O)COCCOCCNC(=O)CC[C@H](NC(=O)CC[C@H](NC(=O)CCCCCCCCCCCCCCCCC(=O)O)C(=O)O)C(=O)O)C(=O)N[C@H](C)C(=O)N[C@@H](Cc2cccc(c2)CNC(=O)CO4)C(=O)N3)cc1 [Ex-58] | < 1.26 | 0.018 | 0.079 | – | – | –
COc1ccc(C[C@@H]2NC(=O)[C@H]([C@@H](C)O)NC(=O)[C@@H]3[C@@H]4CCN3C(=O)[C@@H]3Cc5cn(c6ccc(F)cc56)CCCCCCN(Cc5ccc(cc5)CCNC(=O)[C@]5(C)CCCN5C2=O)C(=O)CCC(=O)N[C@@H](CNC(=O)CCOCCOCC[N+](C)(C)CCNC(=O)COCCOCCNC(=O)COCCOCCNC(=O)CC[C@@H](NC(=O)CC[C@@H](NC(=O)CCCCCCCCCCCCCCCCC(=O)O)C(=O)O)C(=O)O)C(=O)N[C@H](C)C(=O)N[C@@H](Cc2cccc(c2)CNC(=O)CO4)C(=O)N3)cc1 [Ex-59] | < 1.26 | 0.02 | 0.101 | – | – | –
